Experimental data from US20190000889A1, “METHODS FOR TREATING DIABETES” (CITY OF HOPE, priority 2015, published 2019).

Experiments:
Type in all cases: in vivo
C57BL/6 mice = test: Alloxan induction of diabetes, blood glucose levels by day 28; details: one i.v. dose Alloxan 70 mg/kg, day 28, n=222
Method: 8-week-old female mice were I.V. injected with β cell toxin Alloxan (Sigma) at 70 mg/kg body weight. Tail vein blood glucose was measured daily or twice a week with Precision Xtra Glucose Meter (Abbott Diabetes Care Inc.) with a maximum reading of 500 mg/dL Tamoxifen (TM, Sigma) was prepared at 20 mg/mL in corn oil (Sigma). For tracing studies in adult mice, a total of 20 mg of TM was given […] in five doses (each 4 mg) over a 2-week period. Mice rendered diabetic (>300 mg/dL) over a period of 28 days were used in subsequent experiments.
This example investigates whether Sox9^+ pancreatic ductal cells could give rise to insulin-producing β cells in adult diabetic mice after GE treatment, using non-autoimmune Sox9^CreERT2R26^mT/mG C57BL/6 mice. First, a β cell neogenesis mouse model in non-autoimmune diabetic C57BL/6 mice was established. 8 week-old adult female C57BL/6 mice were induced to develop diabetes by one intravenous injection of Alloxan (70 mg/kg body weight) as previously described (14, 27). Mice developed variable levels of hyperglycemia, including mild (<300 mg/dL), medium (300-450 mg/dL) and high hyperglycemia (>450 mg/dL). C57BL/6 mice (n=222) were induced to render diabetic by intravenously injecting one dose of Alloxan (70 mg/kg body weight) at day 0. Blood glucose (BG) concentrations in mice were measured twice a week for 4 weeks.

[1] = tested on: Sox9+ pancreatic ductal cells; test: Lineage tracing of Sox9+ ductal cells in Sox9CreERT2 R26mT/mG mice, long-term low-dose GE (islets); details: Sox9CreERT2 R26mT/mG C57BL/6 mice, TM 20 mg in five doses over 2 weeks
Method: 8 weeks old female Sox9^CreERT2 R26^mT/mG mice were first injected with Tamoxifen™ to label the Sox9/EGFP^+ cells, then the mice were induced to develop diabetes and treated with PBS or GE and monitored as described in FIG. 2A. At the end of experiments, pancreases were stained for Insulin and EGFP, and merged staining was also shown.
(§1) 8-week-old female mice were I.V. injected with β cell toxin Alloxan (Sigma) at 70 mg/kg body weight. Tail vein blood glucose was measured daily or twice a week with Precision Xtra Glucose Meter (Abbott Diabetes Care Inc.) with a maximum reading of 500 mg/dL Tamoxifen (TM, Sigma) was prepared at 20 mg/mL in corn oil (Sigma). […]
Percentage of EGFP^+Sox9^+ cells was determined by the number of EGFP^+Sox9^+ cells divided by the total number of Sox9^+ cells. Cells were counted in ten random fields of view of a tissue section. To quantify the number of lineage-labeled Insulin^+ cells, all Insulin^+ cells and Ins/EGFP^+Ins^+ cells on a section were counted, and then the percentage of Ins/EGFP^+Ins^+ cells amongst total Insulin^+ cells was determined. To quantify the number of lineage-labeled Insulin^+ cells arising from Sox9^+ cells, all Insulin^+ cells and Sox9/EGFP^+Ins^+ cells on a section were counted, and then the percentage of Sox9/EGFP^+Ins^+ cells among total Insulin^+ cells was determined. […] Average count of each mouse was calculated. […]

[2] = tested on: pre-existing insulin-producing β cells; test: Lineage tracing of pre-existing β cells in Ins1CreERT R26mT/mG mice, long-term low-dose GE; details: non-diabetic Ins1CreERT R26mT/mG mice, TM 20 mg in five doses over 2 weeks
Method: 8 weeks old female Ins1^CreERTR26^mT/mG mice were first given I.P. injection of Tamoxifen™ every two days over a 2-week period to induce EGFP expression and label the pre-existing β cells. Thereafter, mice were induced to develop diabetes with Alloxan, and mice with medium or high hyperglycemia were treated with GE or PBS control. At the end of the experiments, the pancreases were harvested and stained for insulin and EGFP, and merged staining was also shown. Nuclei were labeled by DAPI. The percentage of EGFP^+Ins^+ cells amongst total Insulin^+ cells was calculated. Normal non-diabetic mice were used as a control for checking EGFP labeling efficiency.
as §1
Percentage of EGFP^+Sox9^+ cells was determined by the number of EGFP^+Sox9^+ cells divided by the total number of Sox9^+ cells. Cells were counted in ten random fields of view of a tissue section. […] To quantify Sox9/EGFP^+Ins^+ cells among ductal tubes, all Sox9/EGFP^+ ductal cells co-expressing insulin in ducts were counted on a section. […] Average count of each mouse was calculated. […]

Structure (SMILES)	Mouse No. with high hyperglycemia (BG ≥ 450 mg/dL) (C57BL/6 mice)	Mouse No. with medium hyperglycemia (300 ≤ BG < 450 mg/dL) (C57BL/6 mice)	Mouse No. with mild hyperglycemia (BG < 300 mg/dL) (C57BL/6 mice)	Percentage of mice with high hyperglycemia (BG ≥ 450 mg/dL) (C57BL/6 mice)	Percentage of mice with medium hyperglycemia (300 ≤ BG < 450 mg/dL) (C57BL/6 mice)	Percentage of mice with mild hyperglycemia (BG < 300 mg/dL) (C57BL/6 mice)	Pancreatic Sox9-expression ductal epithelial cells labeled with EGFP [1]	Pre-existing β cells in the islets labeled with EGFP [2]
O=C1NC(=O)C(=O)C(=O)N1 [Alloxan]	83	101	38	38%	45%	17%		
CC/C(=C(\c1ccccc1)c1ccc(OCCN(C)C)cc1)c1ccccc1 [TM, Tamoxifen]							over 90%	more than 90%
